In US11464773B2, “Nutlin-3a for treatment of proliferative vitreoretinopathy” (The Schepens Eye Research Institute, Inc., priority 2012, dated 2022):
“Also recorded” adds a separate entry of the source.

Tests used:
p53 [1] = experiment: Western blot: RV-mediated decline in the level of p53 in RCFs; format: cell-based, rabbit
Method: (§1) FIG. 1A is a photograph of a western blot showing the impact of Nutlin-3a on RV-mediated signaling events. Primary rabbit conjunctival fibroblasts (RCFs) were pre-treated with either Nutlin-3a (10 μM), or vehicle for 30 min and then exposed to either RV (diluted 1:3 in Dulbecco's Modified Eagle Medium (DMEM)), or DMEM for 2 hr. The resulting cell lysates were subjected to western blot analysis using the indicated antibodies. The numbers are a ratio of p-PDGFRα/PDGFRα, p-Akt/Akt or p53/RasGAP (Ras GTPase) activating protein. […] FIG. 1B is a bar chart showing the impact of Nutlin-3a on RV-mediated contraction. RCFs were subjected to the collagen contraction assay as described above. Nutlin-3a (10 μM) or vehicle was included as indicated. The data were subjected to a paired t test; “*” denoted a statistically significant difference.
FIGS. 8A-8B include a series of photographs showing the minimum effective dose and maximum tolerated dose of Nutlin-3a. FIG. 8A is a series of photomicrographs of western blots showing RCFs pretreated with the indicated concentrations of Nutlin-3a for 30 min, and then exposed to RV (diluted 1:3 in DMEM) for 2 hours. […]
(§2) Cells were grown to 90% confluence in serum-containing medium, and then incubated for 24 hr in medium without serum. […] Signal intensity was determined by densitometry and analyzed with the Quantity One (Bio-Rad) software.

PDGFRα = experiment: Western blot: RV-induced phosphorylation of PDGFRα in RCFs; format: cell-based, rabbit; settings: Nutlin-3a 10 μM, RV 2 hr
Method: as §1
(§3) Cells were grown to 90% confluence in serum-containing medium, and then incubated for 24 hr in medium without serum. Cells were stimulated (as detailed for each experiment), washed twice with ice-cold phosphate buffered saline (PBS), and lysed in extraction buffer (10 mM Tris-HCl, pH 7.4, 5 mM EDTA, 50 mM NaCl, 50 mM NaF, 1% Triton X-100, 20 μg/ml aprotinin, 2 mM Na3VO4, 1 mM phenylmethylsulfonyl fluoride). […] Signal intensity was determined by densitometry and analyzed with the Quantity One (Bio-Rad) software.

Akt = experiment: Western blot: RV-induced activation of Akt in RCFs; format: cell-based, rabbit; settings: Nutlin-3a 10 μM, RV 2 hr
Method: as §1, §3

[2] = test system: primary rabbit conjunctival fibroblasts (RCFs); experiment: Collagen I contraction assay, RV-induced, RCFs; format: cell-based; settings: Nutlin-3a 10 μM, gel measured on day 3
Method: as §1
(§4) Cells were trypsinized, washed and resuspended in 1.5 mg/ml of neutralized collagen I (INAMED, Fremont, Calif.) (pH 7.2) at a density of 1×10^6 cells/ml for RPEM or 5×10^4 cells/ml for RCFs. The mixture was aliquoted into wells of a 24-well plate that had been preincubated overnight with 5 mg/ml bovine serum albumin in PBS. […] The media were replaced every day, and the gel diameter was measured on day 3. The gel area was calculated using the formula πr2, where r is the radius of the gel.

[3] = test system: primary rabbit conjunctival fibroblasts (RCFs); experiment: Maximum tolerated dose in cultured RCFs; format: cell-based; settings: RCFs in DMEM+5% FBS, medium replaced every 24 hours, day 3
Method: FIGS. 8A-8B include a series of photographs showing the minimum effective dose and maximum tolerated dose of Nutlin-3a. FIG. 8A is a series of photomicrographs of western blots showing RCFs pretreated with the indicated concentrations of Nutlin-3a for 30 min, and then exposed to RV (diluted 1:3 in DMEM) for 2 hours. Cells were lysed and resulting lysates were subjected to western blot analysis using the indicated antibodies. The data shown are representative of three independent experiments. FIG. 8B is a series of photographs showing RCFs grown to near confluence in DMEM+10% FBS, the medium was replaced with DMEM+5% FBS+the indicated concentration of Nutlin-3a. The medium was replaced every 24 hours, and the photographs were taken on day 3. The data shown are representative of two independent experiments. The scale bar is 50 μm.

retina = experiment: Retinal toxicity after intravitreal injections in rabbits; format: in vivo; settings: multiple intravitreal injection of up to 20 micromolar, day 0, 2 and 4; fundus exams to day 14, histology
Method: FIGS. 9A-9B include a series of photographs showing epiretinal membranes from rabbits subjected to the PVR protocol. Rabbits that underwent a gas vitrectomy were intravitreally injected with the indicated concentration of Nutlin-3a on day 0, 2 and 4. The rabbits underwent a fundus examination on day 1, 3, 5, 7 and 14. Following the last fundus exam rabbits were euthanized, eyes were enucleated and fixed in 10% formalin. Sections were prepared, stained with hematoxylin and eosin, and then photographed. Representative photos of a Nutlin-3a (FIG. 9A) and vehicle (FIG. 9B) injected eye are presented. Arrowheads and arrows point to the retina and epiretinal membrane, respectively; scale bar: 50 μm. The lack of the retinal pigment epithelial cell layer is an artifact related to processing of the tissue.

[4] = test system: proliferative vitreoretinopathy (PVR); experiment: Rabbit model for PVR (Fastenberg scale); format: in vivo, Dutch Belted rabbits
Method: (§5) FIGS. 2A-2B include a dot plot and a series of photomicrographs showing that Nutlin -3a prevented retinal detachment and elevated p53 in epiretinal membranes. FIG. 2A is a dot plot illustrating the impact of Nutlin-3a on experimental PVR. RCFs were used to induce PVR as described below. The indicated rabbits received no additional injections (none) or 0.1 cc injections of either vehicle, or Nutlin-3a (20 μM) on day 0, 2 and 4. The data were subjected to an unpaired t test or one way Analysis of Variance (ANOVA) test; “*” denoted a statistically significant difference. FIG. 2B is a series of photographs showing that Nutlin-3a enhanced expression of p53 in epiretinal membranes. At the end of the experiment (day 28), the eyes were enucleated, and paraffin sections of whole eyes were subjected to p53 immunohistochemistry. The arrows point to the epiretinal membrane (the arrowheads denote the retina and the brown color indicates p53). The left and right panels are from a Nutlin-3a injected animal, whereas the middle panel is from a rabbit treated with vehicle. The left and middle panels were stained with the p53 antibody, whereas the right panel was stained with non-immune IgG. The scale bar is 50 μm.
PVR was induced in Dutch Belted rabbits, purchased from Covance (Denver, Pa.), as previously described (Lei H et al., 2009 Invest Ophthalmol Vis Sci, 50:3394-3403). Briefly, a gas vitrectomy was performed by injecting 0.1 ml of perfluoropropane (C3F8) (Alcon, Fort Worth, Tex.) into vitreous. One week later, the right eye of rabbits was injected in one of two ways. For the experiment injecting RCFs expressing shRNAs, 0.1 ml of DMEM containing 1×10^5 RCFs that were modified as outlined in the legend were injected along with 0.1 ml rabbit platelet-rich plasma. For the Nutlin-3a experiment, all rabbits were injected with 0.1 ml of DMEM containing 1×10^5 unmodified RCFs, 0.1 ml rabbit platelet rich plasma and either not injected a third time, or injected with vehicle, or 0.1 ml of 200 μM Nutlin-3a. The vehicle or Nutlin-3a injection was repeated on day 3 and 5. The retinal status was evaluated with an indirect ophthalmoscope fitted with a +30 D fundus lens on day 1, 3, 5, 7, 14, 21 and 28. PVR was graded according to the Fastenberg scale of classification 41: stage 0, no disease; stage 1, epiretinal membrane; stage 2, vitreoretinal traction without retinal detachment; stage 3, localized retinal detachment (1-2 quadrants); stage 4, extensive retinal detachment (2-4 quadrants without complete detachment); stage 5, complete retinal detachment. On day 28, animals were sacrificed, and eyes were enucleated and frozen at −80° C.

p53 [5] = experiment: p53 immunohistochemistry of epiretinal membranes from PVR rabbits; format: in vivo, rabbit; settings: day 28, immunohistochemistry
Method: as §5
Rabbit eyeballs were fixed in 10% formalin for 48 hr and embedded in paraffin after dehydration. […]

p53 [6] = experiment: Western blot: HV-mediated fall in the level of p53 in RPE cells from a human PVR membrane; format: cell-based; settings: RPE cells from human epiretinal membrane, HV pool of 5 PVR patients diluted 1:3
Description: (§6) FIGS. 7A-7B include a photograph of a western blot and a bar chart showing p53 attenuated human vitreous humor (HV)-driven collagen gel contraction. FIG. 7A is a photograph of a western blot showing the impact of Nutlin-3a on HV-mediated signaling events. Methods were the same as FIG. 3A, but the RPE cells from a human patient epiretinal membrane were used in place of RCF, and HV (a pool of vitreous from 5 PVR patients diluted 1:3 in DMEM) was used in place of RV. The data presented are representative of three independent experiments. FIG. 7B is a bar chart showing the impact of Nutlin-3a on HV-mediated contraction. This experiments were the same as FIG. 3B with the modification noted in FIG. 7A. The data were subjected to a paired t test. “*” denoted a statistically significant difference. The data shown are representative of three independent experiments.
(§7) RPEM cells are RPE cells derived from a human epiretinal membrane, as previously described (Wong C A et al., 2002 Can J Ophthalmol, 37:211-220). Primary rabbit conjunctival fibroblasts (RCFs) were obtained and cultured as described previously (Ikuno Y et al., 2002 Invest Ophthalmol Vis Sci, 43:2406-2411). […]
as §2

[7] = test system: upstream signaling events; experiment: Western blot: HV-mediated upstream signaling events in RPE cells from a human PVR membrane; format: cell-based; settings: RPE cells from human epiretinal membrane, HV diluted 1:3
Description: as §6, §7, §2

[8] = test system: RPE cells isolated from a human PVR membrane; experiment: Collagen contraction assay, HV-stimulated, RPE cells from a human PVR membrane; format: cell-based; settings: RPE cells from human epiretinal membrane, HV diluted 1:3
Description: as §6
RPEM cells are RPE cells derived from a human epiretinal membrane, as previously described (Wong C A et al., 2002 Can J Ophthalmol, 37:211-220). […]
as §4, with “RCFs.” for “RCFs. The mixture was aliquoted into wells of a 24-well plate that had been preincubated overnight with 5 mg/ml bovine serum albumin in PBS.”

sh GFP cells = experiment: Collagen contraction assay, RV-induced, sh GFP RCFs; format: cell-based, rabbit; settings: Imatinib 10 μM, day 3
Description: (§8) FIGS. 10A-10B include a series of bar graphs showing that inhibiting PDGFRα kinase activity blocked RV-induced collagen contraction. The indicated RCFs (50,000 cells/ml) (FIG. 10A) or F cells (1 million cells/ml) (FIG. 10B) were subjected to a collagen contraction assays as described below. […] The panels below the bar graphs show photographs of representative gels; the data presented are representative of 3 independent experiments. The data were subjected to a paired t test; “*” denoted a statistically significant difference.
Cells were trypsinized, washed and resuspended in 1.5 mg/ml of neutralized collagen I (INAMED, Fremont, Calif.) (pH 7.2) at a density of 1×10^6 cells/ml for RPEM or 5×10^4 cells/ml for RCFs. The mixture was aliquoted into wells of a 24-well plate that had been preincubated overnight with 5 mg/ml bovine serum albumin in PBS. The collagen solution was solidified by incubating at 37° C. for 90 min, and overlaid with medium containing the desired agents. The media were replaced every day, and the gel diameter was measured on day 3. The gel area was calculated using the formula πr2, where r is the radius of the gel.

Fβ cells = experiment: Collagen contraction assay, RV-induced, Fβ cells; format: cell-based, mouse; settings: Imatinib 10 μM, day 3
Description: as §8
(§9) RPEM cells are RPE cells derived from a human epiretinal membrane, as previously described (Wong C A et al., 2002 Can J Ophthalmol, 37:211-220). Primary rabbit conjunctival fibroblasts (RCFs) were obtained and cultured as described previously (Ikuno Y et al., 2002 Invest Ophthalmol Vis Sci, 43:2406-2411). RCFs that stably expressed the shRNA targeting vector specific for GFP, PDGFRα, p53 or PDGFRα and p53 were designated sh GFP, sh PDGFRα sh p53 and sh PDGFRα/p53, respectively.
as §4, with “RCFs.” for “RCFs. The mixture was aliquoted into wells of a 24-well plate that had been preincubated overnight with 5 mg/ml bovine serum albumin in PBS.”

Fα cells = experiment: Collagen contraction assay, RV-induced, Fα cells; format: cell-based, mouse; settings: Imatinib 10 μM, day 3
Description: as §8, §9
as §4, with “RCFs.” for “RCFs. The mixture was aliquoted into wells of a 24-well plate that had been preincubated overnight with 5 mg/ml bovine serum albumin in PBS.”

Which “RV-mediated decline in the level of p53” value (p53 [1]; RCFs pre-treated with Nutlin-3a 10 μM 30 min, then RV (1:3 in DMEM) 2 hr) does the source give for `COc1ccc(C2=N[C@@H](c3ccc(Cl)cc3)[C@@H](c3ccc(Cl)cc3)N2C(=O)N2CCNC(=O)C2)c(OC(C)C)c1` (single isomer, unassigned) [Nutlin-3a] here?
The value was “effectively blocked”.

What about the “minimum dose to prevent the RV-induced reduction of p53” value (p53 [1]; RCFs pretreated 30 min, RV (1:3) 2 hours) of the same molecule?
The value was 2 µM.

What about the “RV-induced phosphorylation of PDGFRα” value (PDGFRα) of the same molecule?
Its value is “no effect”.

What about the “RV-induced activation of Akt” value (Akt) of the same molecule?
Its value is “no effect”.

What about the “RV-mediated contraction of collagen gels” value [2] of the same molecule?
The value was “effectively blocked”.

And the maximum tolerated dose [3]?
Its maximum tolerated dose is 30 µM.

What about the “overt signs of retinal toxicity” value (retina) of the same molecule?
The value was “did not produce overt signs of retinal toxicity”.

What about the “animals that succumbed to even partial retinal detachment (stage 3 or 4)” value ([4]; by day 28, intravitreal Nutlin-3a injections) of the same molecule?
Its value is 0%.

And the “formation of epiretinal membranes (stage 1 and 2)” value ([4]; intravitreal Nutlin-3a injections, to day 28)?
The value was “slowed formation of membranes; also recorded: did form membranes”.

What about the retinal detachment ([4]; series of intravitreal injections) of the same molecule?
Its retinal detachment is “completely prevented”.

And the “rabbits that developed vitreal traction (stage 2)” value ([4]; series of intravitreal injections, end of experiment (day 28))?
The value was 50%.

What about the “p53 level in epiretinal membranes versus vehicle-injected controls” value (p53 [5]) of the same molecule?
Its value is “higher”.

What about the “HV-induced fall in the level of p53” value (p53 [6]) of the same molecule?
The value was “prevented the precipitous fall”.

And the “upstream signaling events in HV-treated cells” value [7]?
Its value is “without impacting upstream signaling events”.

What about the “HV-stimulated contraction of RPE-containing collagen gels” value [8] of the same molecule?
Its value is “inhibited”.

Which “RV-induced contraction in sh GFP cells” value (sh GFP cells) does the source give for `Cc1ccc(NC(=O)c2ccc(CN3CCN(C)CC3)cc2)cc1Nc1nccc(-c2cccnc2)n1` [Imatinib] here?
The value was “completely blocked”.

And the “RV-induced contraction in cells expressing PDGFRβ (Fβ)” value (Fβ cells)?
The value was “did not improve RV-induced contraction or generate sensitivity to Imatinib”.

What about the “RV-stimulated contraction in cells expressing PDGFRα (Fα)” value (Fα cells) of the same molecule?
Its value is “erased”.
